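96-well plates; 48 h exposure; 5 concentrations. Endpoints by linear interpolation between flanking doses. Not reached: highest tested concentration assigned. GI50 = concentration required for 50% inhibition of growth. At the TGI there is no net growth.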
Experiments:
Experiment in all cases: NCI tumour cell line growth inhibition, 48 h
LOX IMVI melanoma = system: LOX IMVI melanoma
MDA-MB-231 breast = system: MDA-MB-231 breast
SW-620 colon = system: SW-620 colon
OVCAR-3 ovarian = system: OVCAR-3 ovarian
SK-OV-3 ovarian = system: SK-OV-3 ovarian
NCI-H23 lung = system: NCI-H23 lung
RPMI-8226 leukemia = system: RPMI-8226 leukemia
MALME-3M melanoma = system: MALME-3M melanoma
K-562 leukemia = system: K-562 leukemia
HOP-62 NSCLC = system: HOP-62 NSCLC
IGROV1 ovarian = system: IGROV1 ovarian
M14 melanoma = system: M14 melanoma
HOP-92 NSCLC = system: HOP-92 NSCLC
786-0 renal = system: 786-0 renal
ACHN renal = system: ACHN renal
SF-295 CNS = system: SF-295 CNS
EKVX NSCLC = system: EKVX NSCLC
U251 CNS = system: U251 CNS
HCC-2998 colon = system: HCC-2998 colon
MOLT-4 leukemia = system: MOLT-4 leukemia
PC-3 prostate = system: PC-3 prostate
HT29 colon = system: HT29 colon
HS 578T breast = system: HS 578T breast
HL-60(TB) leukemia = system: HL-60(TB) leukemia
NCI/ADR-RES ovarian = system: NCI/ADR-RES ovarian
SF-268 CNS = system: SF-268 CNS
CAKI-1 renal = system: CAKI-1 renal
OVCAR-4 ovarian = system: OVCAR-4 ovarian
HCT-116 colon = system: HCT-116 colon
UO-31 renal = system: UO-31 renal
NCI-H226 lung = system: NCI-H226 lung
A549 NSCLC = system: A549 NSCLC
DU-145 prostate = system: DU-145 prostate
SNB-75 CNS = system: SNB-75 CNS
UACC-62 melanoma = system: UACC-62 melanoma
SNB-19 CNS = system: SNB-19 CNS
SR leukemia = system: SR leukemia
SF-539 CNS = system: SF-539 CNS
SK-MEL-28 melanoma = system: SK-MEL-28 melanoma
MCF7 breast = system: MCF7 breast
HCT-15 colon = system: HCT-15 colon
NCI-H460 lung = system: NCI-H460 lung
A498 renal = system: A498 renal
KM12 colon = system: KM12 colon
COLO 205 colon = system: COLO 205 colon
T-47D breast = system: T-47D breast
SK-MEL-5 melanoma = system: SK-MEL-5 melanoma
OVCAR-8 ovarian = system: OVCAR-8 ovarian
TK-10 renal = system: TK-10 renal
MDA-MB-435 = system: MDA-MB-435
CCRF-CEM leukemia = system: CCRF-CEM leukemia
RXF 393 renal = system: RXF 393 renal
SN12C renal = system: SN12C renal
OVCAR-5 ovarian = system: OVCAR-5 ovarian

SMILES: O=C(Nc1ccncc1)C(=O)c1cn(Cc2ccc(Cl)cc2)c2ccccc12
- GI50 (LOX IMVI melanoma): 57.4 nM
- TGI (LOX IMVI melanoma): > 100000 nM
- GI50 (MDA-MB-231 breast): 179 nM
- TGI (MDA-MB-231 breast): > 100000 nM
- GI50 (SW-620 colon): 33.2 nM
- TGI (SW-620 colon): > 100000 nM
- GI50 (OVCAR-3 ovarian): 26.7 nM
- TGI (OVCAR-3 ovarian): 65.2 nM
- GI50 (SK-OV-3 ovarian): 199 nM
- TGI (SK-OV-3 ovarian): > 100000 nM
- GI50 (NCI-H23 lung): 54.8 nM
- TGI (NCI-H23 lung): > 100000 nM
- GI50 (RPMI-8226 leukemia): 41.6 nM
- TGI (RPMI-8226 leukemia): > 100000 nM
- GI50 (MALME-3M melanoma): 41.4 nM
- TGI (MALME-3M melanoma): > 100000 nM
- GI50 (K-562 leukemia): 26.5 nM
- TGI (K-562 leukemia): 34800 nM
- GI50 (HOP-62 NSCLC): 59.7 nM
- TGI (HOP-62 NSCLC): > 100000 nM
- GI50 (IGROV1 ovarian): 141 nM
- TGI (IGROV1 ovarian): > 100000 nM
- GI50 (M14 melanoma): 48 nM
- TGI (M14 melanoma): > 100000 nM
- GI50 (HOP-92 NSCLC): 48.9 nM
- TGI (HOP-92 NSCLC): > 75100 nM
- GI50 (786-0 renal): 53.3 nM
- TGI (786-0 renal): > 100000 nM
- GI50 (ACHN renal): 82 nM
- TGI (ACHN renal): > 100000 nM
- GI50 (SF-295 CNS): 21.7 nM
- TGI (SF-295 CNS): 80.3 nM
- GI50 (EKVX NSCLC): 261 nM
- TGI (EKVX NSCLC): > 100000 nM
- GI50 (U251 CNS): 47.2 nM
- TGI (U251 CNS): > 100000 nM
- GI50 (HCC-2998 colon): 114 nM
- TGI (HCC-2998 colon): > 100000 nM
- GI50 (MOLT-4 leukemia): 64 nM
- TGI (MOLT-4 leukemia): > 100000 nM
- GI50 (PC-3 prostate): 41.9 nM
- TGI (PC-3 prostate): > 100000 nM
- GI50 (HT29 colon): 36.3 nM
- TGI (HT29 colon): > 100000 nM
- GI50 (HS 578T breast): 33.9 nM
- TGI (HS 578T breast): > 100000 nM
- GI50 (HL-60(TB) leukemia): 32.7 nM
- TGI (HL-60(TB) leukemia): 237 nM
- GI50 (NCI/ADR-RES ovarian): 31.7 nM
- TGI (NCI/ADR-RES ovarian): > 100000 nM
- GI50 (SF-268 CNS): 77.5 nM
- TGI (SF-268 CNS): > 100000 nM
- GI50 (CAKI-1 renal): 35.5 nM
- TGI (CAKI-1 renal): > 100000 nM
- GI50 (OVCAR-4 ovarian): 106 nM
- TGI (OVCAR-4 ovarian): > 100000 nM
- GI50 (HCT-116 colon): 48 nM
- TGI (HCT-116 colon): > 100000 nM
- GI50 (UO-31 renal): 78.8 nM
- TGI (UO-31 renal): > 100000 nM
- GI50 (NCI-H226 lung): 276 nM
- TGI (NCI-H226 lung): > 100000 nM
- GI50 (A549 NSCLC): 399 nM
- TGI (A549 NSCLC): > 100000 nM
- GI50 (DU-145 prostate): 51 nM
- TGI (DU-145 prostate): > 65000 nM
- GI50 (SNB-75 CNS): 37.5 nM
- TGI (SNB-75 CNS): 3790 nM
- GI50 (UACC-62 melanoma): 51.4 nM
- TGI (UACC-62 melanoma): > 100000 nM
- GI50 (SNB-19 CNS): 62.2 nM
- TGI (SNB-19 CNS): > 100000 nM
- GI50 (SR leukemia): 29.8 nM
- TGI (SR leukemia): > 100000 nM
- GI50 (SF-539 CNS): 27.8 nM
- TGI (SF-539 CNS): 78.8 nM
- GI50 (SK-MEL-28 melanoma): 71.1 nM
- TGI (SK-MEL-28 melanoma): > 100000 nM
- GI50 (MCF7 breast): 36.3 nM
- TGI (MCF7 breast): > 100000 nM
- GI50 (HCT-15 colon): 40.8 nM
- TGI (HCT-15 colon): > 100000 nM
- GI50 (NCI-H460 lung): 58.5 nM
- TGI (NCI-H460 lung): > 100000 nM
- GI50 (A498 renal): 544 nM
- TGI (A498 renal): > 100000 nM
- GI50 (KM12 colon): 38.4 nM
- TGI (KM12 colon): > 100000 nM
- GI50 (COLO 205 colon): 232 nM
- TGI (COLO 205 colon): > 22300 nM
- GI50 (T-47D breast): 43.6 nM
- TGI (T-47D breast): > 100000 nM
- GI50 (SK-MEL-5 melanoma): 30.9 nM
- TGI (SK-MEL-5 melanoma): > 35000 nM
- GI50 (OVCAR-8 ovarian): 54.9 nM
- TGI (OVCAR-8 ovarian): > 100000 nM
- GI50 (TK-10 renal): 457 nM
- TGI (TK-10 renal): > 100000 nM
- GI50 (MDA-MB-435): < 10 nM
- TGI (MDA-MB-435): 44 nM
- GI50 (CCRF-CEM leukemia): 33.1 nM
- TGI (CCRF-CEM leukemia): > 100000 nM
- GI50 (RXF 393 renal): 30.2 nM
- GI50 (SN12C renal): 72.5 nM
- TGI (SN12C renal): > 100000 nM
- GI50 (OVCAR-5 ovarian): 223 nM
- TGI (OVCAR-5 ovarian): > 100000 nM
